Results reported in patent publication US20120041025A1, “Dihydrolipoic Acid Derivatives Comprising Nitric Oxide and Therapeutic Uses Thereof” (priority 2009, published 2012).

Key:
[1] = Storage stability of DHLA-NO solution (color / absorbance at OD 545 nm); format: physicochemical
Experimental: Furthermore, it was also observed that other reduced thiols (cysteine, glutathione), which were used as controls, generated similar S-nitroso thiol compounds. NO generated from the decomposition of other NO donors also generated nitroso-DHLA when incubated with DHLA. […] However, DHLA-NO stored at −80° C. retained its color up for up to 3 months without any loss of absorbance at OD 545 nm.

[2] = system: low-density lipoprotein (LDL); assay: Inhibition of low-density lipoprotein oxidation, spectral analysis at O.D. 234; format: biochemical; conditions: 10, 25, and 50 μM NO-DHLA in ethyl alcohol
Experimental: To determine whether the dinitroso-derivative of dihydrolipoic acid (6,8-bis[(oxidoazanylidyne)-λ^4-sulfanyl]octanoic acid or “NO-DHLA”) was capable of inhibiting low-density lipoprotein (LDL) oxidation, LDLs were incubated in ethyl alcohol alone or with NO-DHLA. A spectral analysis of these solutions was then performed at an O.D. of 234, as absorbance at that portion of the spectrum is indicative of the formation of the oxidized fatty acid component of LDL.

[3] = system: bovine serum albumin (BSA); assay: Nitration of bovine serum albumin by NO-DHLA, western blot with anti-nitrotyrosine antibodies (NO donation); format: biochemical; conditions: BSA 25 mg/ml incubated with NO-DHLA (6 to 15 μl) for 1 hr; untreated albumin had no detectable nitrotyrosine
Experimental: To determine the ability of the dinitroso-derivative of DHLA (6,8-bis[(oxidoazanylidyne)-λ^4-sulfanyl]octanoic acid or “NO-DHLA”) to donate nitric oxide (NO), bovine serum albumin (BSA) was first prepared in water at 25 mg/ml. In 100 μl of alcohol, increasing concentrations of BSA (15 to 30 μl) were then mixed with increasing concentrations of the NO-DHLA (0 to 15 μl) and incubated for 1 hr. Table 1 represents the incubation:
At the end of the incubation, samples were the separated by SDS-PAGE electrophoresis with along with markers of molecular weight. At the end of the electrophoresis, the blot was subsequently transferred on to a nitrocellulose membrane and western blotting was performed using anti-nitrotyrosine antibodies at a 1:1000 dilution (Oxford Biomedical Research, Rochester Hills, Mich.). Non-specific sites on the nitrocellulose were blocked with milk protein for 16 h at 4° C. and then overlaid with a polyclonal anti-nitrotyrosine rabbit antibody. Peroxidase conjugated anti-rabbit IgG was used as secondary antibody. […]

O=NSCCC(CCCCC(=O)O)SN=O (centres unmarked) [NO-DHLA, 6,8-bis[(oxidoazanylidyne)-λ^4-sulfanyl]octanoic acid]
stability of solution stored at room temperature ([1]; solution stored at room temperature, color): decomposed, losing color within hours | stability without any loss of absorbance at OD 545 nm ([1]; stored at −20° C.): stable at −20 °C for at least one month | time color retained without any loss of absorbance at OD 545 nm ([1]; stored at −80° C.): up to 3 months | oxidation of LDL (O.D. at 234 over time) [2]: effectively prevented or significantly reduced the oxidation of LDL | nitrotyrosine formation on BSA (reactivity with anti-nitrotyrosine antibody) [3]: intense reactivity with the antibody
